# Results from patent US20260274829A1, “NEW E3 UBIQUITIN LIGASE LIGAND, PROTEIN DEGRADATION AGENT AND USE THEREOF” (GLUETACS THERAPEUTICS (SHANGHAI) CO., LTD., priority 2023, published 2026).
# Target: T1, human Cereblon WT GST-tagged protein (Homo sapiens, UniProt Q96SW2)
# T1 construct: purchased CISBIO 64BDCRBNPEH
# Experiment: CRBN binding, HTRF CEREBLON BINDING kit
# Details: CRBN binding, HTRF CEREBLON BINDING kit
# Summary of the method: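 Binding inhibition was calculated from the 665/620 nm emission ratios, with blank wells and solvent wells as references. Test compounds competed for GST-tagged human Cereblon WT against a Thalidomide-Re reagent paired with GST Eu antibody. Plates were sealed and held at room temperature for 3 hours before the HTRF read.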
# T1 sequence (Q96SW2 whole entry): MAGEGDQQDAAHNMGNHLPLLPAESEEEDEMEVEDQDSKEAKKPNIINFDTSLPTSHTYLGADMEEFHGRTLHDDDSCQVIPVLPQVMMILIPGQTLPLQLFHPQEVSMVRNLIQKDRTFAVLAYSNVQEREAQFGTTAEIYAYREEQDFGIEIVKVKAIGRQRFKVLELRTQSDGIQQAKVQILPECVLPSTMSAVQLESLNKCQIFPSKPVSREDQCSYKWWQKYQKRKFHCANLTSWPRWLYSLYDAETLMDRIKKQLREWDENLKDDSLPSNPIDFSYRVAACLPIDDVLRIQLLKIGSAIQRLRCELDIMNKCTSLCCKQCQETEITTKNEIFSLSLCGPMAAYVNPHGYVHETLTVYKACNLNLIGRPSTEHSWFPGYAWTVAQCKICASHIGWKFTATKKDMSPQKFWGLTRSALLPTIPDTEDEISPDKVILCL
row,SMILES,IC50 [nM]
1,"COc1cc(N2CCC(N(C)Cc3ccc(C4CCC(=O)NC4=O)cn3)CC2)ccc1Nc1ncc(Cl)c(Nc2ccccc2P(C)(C)=O)n1 (stereo not drawn) [GT-07698, 3-(6-(((1-(4-((5-chloro-4-((2-(dimethylphosphoryl)phenyl)amino)pyrimidin-2-yl)amino)-3-methoxyphenyl)piperidin-4-yl)(methyl)amino)methyl)pyridin-3-yl)piperidine-2,6-dione]",1000 to 1900
2,"CN(Cc1cccc(NC2CCC(=O)NC2=O)c1)C1CCN(c2ccc(Nc3ncc4nc(Nc5ccccc5)n(C5CCCC5)c4n3)cc2)CC1 (stereo not drawn) [GT-07094, 3-((3-(((1-(4-((9-cyclopentyl-8-(phenylamino)-9H-purin-2-yl)amino)phenyl)piperidin-4-yl)(methyl)amino)methyl)phenyl)amino)piperidine-2,6-dione]",1000 to 1900
3,"O=C1CCN(c2ccc(CN3CCC(n4cc(NC(=O)c5cnn6ccc(N7C[C@H]8C[C@@H]7CO8)nc56)c(C(F)F)n4)CC3)nc2)C(=O)N1 [GT-05053, 5-((1R,4R)-2-oxa-5-azabicyclo[2.2.1]heptan-5-yl)-N-(3-(difluoromethyl)-1-(1-((5-(2,4-dioxotetrahydropyrimidin-1(2H)-yl)pyridin-2-yl)methyl)piperidin-4-yl)-1H-pyrazol-4-yl)pyrazolo[1,5-a]pyrimidine-3-carboxamide]",500 to 1000
4,"CC(C)(O)c1cc2nc(C3CCN(Cc4cccc(N5CCC(=O)NC5=O)c4)CC3)oc2cc1NC(=O)c1cccc(C(F)(F)F)n1 [GT-05773, N-(2-(1-(3-(2,4-dioxotetrahydropyrimidin-1(2H)-yl)benzyl)piperidin-4-yl)-5-(2-hydroxypropan-2-yl)benzo[d]oxazol-6-yl)-6-(trifluoromethyl)picolinamide]",500 to 1000
5,"COc1cc(N2CCC(N3CCN(Cc4cc(C5CCC(=O)NC5=O)cnc4F)CC3)CC2)ccc1Nc1ncc(Cl)c(Nc2ccccc2P(C)(C)=O)n1 (stereo not drawn) [GT-07611, 3-(5-((4-(1-(4-((5-chloro-4-((2-(dimethylphosphoryl)phenyl)amino)pyrimidin-2-yl)amino)-3-methoxyphenyl)piperidin-4-yl)piperazin-1-yl)methyl)-6-fluoropyridin-3-yl)piperidine-2,6-dione]",500 to 1000
6,"Cc1nc2c(F)cc(-c3nc(Nc4ccc(N5CCC(N6CCN(Cc7cccc(N8CCC(=O)NC8=O)c7)CC6)CC5)cn4)ncc3F)cc2n1C(C)C [GT-06740, 1-(3-((4-(1-(6-((5-fluoro-4-(4-fluoro-1-isopropyl-2-methyl-1H-benzo[d]imidazol-6-yl)pyrimidin-2-yl)amino)pyridin-3-yl)piperidin-4-yl)piperazin-1-yl)methyl)phenyl)dihydropyrimidine-2,4(1H,3H)-dione]",500 to 1000

# Continued, values first:
row,IC50 [nM],SMILES
1,500 to 1000,"Cc1cc(Nc2ncc(Cl)c(Nc3ccccc3S(=O)(=O)C(C)C)n2)c(OC(C)C)cc1C1CCN(Cc2cc(C3CCC(=O)NC3=O)cnc2F)CC1 (stereo not drawn) [GT-07598, 3-(5-((4-(4-((5-chloro-4-((2-(isopropylsulfonyl)phenyl)amino)pyrimidin-2-yl)amino)-5-isopropoxy-2-methylphenyl)piperidin-1-yl)methyl)-6-fluoropyridin-3-yl)piperidine-2,6-dione]"
2,< 500,"O=C1CCC(c2ccc(CN3CCN(C4CCN(c5ccc(Nc6ncc7nc(Nc8ccccc8)n(C8CCCC8)c7n6)cc5)CC4)CC3)cc2)C(=O)N1 (stereo not drawn) [GT-05915, 3-(4-((4-(1-(4-((9-cyclopentyl-8-(phenylamino)-9H-purin-2-yl)amino)phenyl)piperidin-4-yl)piperazin-1-yl)methyl)phenyl)piperidine-2,6-dione]"
3,< 500,"CCc1cc2c(cc1N1CCC(N3CCN(Cc4cncc(N5CCC(=O)NC5=O)c4)CC3)CC1)C(C)(C)c1[nH]c3cc(C#N)ccc3c1C2=O [GT-07702, 8-(4-(4-((5-(2,4-dioxotetrahydropyrimidin-1(2H)-yl)pyridin-3-yl)methyl)piperazin-1-yl)piperidin-1-yl)-9-ethyl-6,6-dimethyl-11-oxo-6,11-dihydro-5H-benzo[b]carbazole-3-carbonitrile]"
